Reference: patent EP0025288A1, “Derivatives of monic acid, processes for their preparation, compositions containing them and their preparation” (priority 1979, dated 1981)
In brackets after ≈: the same amount, converted by molar mass.

What was measured:
[1] = system: M. hyorhinis ATCC 23234; experiment: MIC, anti-mycoplasmal, Friis broth solidified with 0.9% agarose; format: cell-based; conditions: Mesomycoplasma hyorhinis, ATCC23234, 144 h, inoculum 10^3 to 10^5 C.F.U., 6 days incubation at 37°C, read-out: in vitro MIC
[2] = system: Staph aureus Oxford; experiment: MIC, veterinary bacteria; format: cell-based; conditions: Staphylococcus aureus, veterinary bacteria (Table 2), read-out: MIC
[3] = system: Past multocida PA2; experiment: MIC, veterinary bacteria; format: cell-based; conditions: veterinary bacteria (Table 2), read-out: MIC
[4] = system: Past multocida PA1; experiment: MIC, veterinary bacteria; format: cell-based; conditions: veterinary bacteria (Table 2), read-out: MIC
[5] = system: Strep suis (group D) SPS11; experiment: MIC, veterinary bacteria; format: cell-based; conditions: veterinary bacteria (Table 2), read-out: MIC
[6] = system: Strep dysgalaciae SPD1; experiment: MIC, veterinary bacteria; format: cell-based; conditions: veterinary bacteria (Table 2), read-out: MIC
[7] = system: M. hyosynoviae ATCC 25591; experiment: MIC, anti-mycoplasmal, Friis broth solidified with 0.9% agarose; format: cell-based; conditions: 144 h, inoculum 10^3 to 10^5 C.F.U., 6 days incubation at 37°C, read-out: in vitro MIC
[8] = Mean serum concentration in neonatal piglets after intramuscular or oral administration; format: in vivo; conditions: pig, 50 mg/kg; for concentration at 1 h: 60'
Description: e) Mean serum concentration in neonatal piglets of Examples 4 and 5 after intramuscular or oral administration at 50 mg/kg
Blood levels were assessed in neonatal piglets (2 to 4 animals per group and man bodyweights about 2 kg). The dose was 50 mg/kg (dose solution = 25 mg/ml in 25% ethanol). Doses were given by intramuscular injection and orally by stomach tube. Piglets were bled at intervals up to 8 and at 24 hours, and serum assayed microbiologically (B. subtilis ATCC 6633).

[9] = system: M. bovis NCTC 10131; experiment: microbe, parasite or virus in culture; format: cell-based; conditions: NCTC10131, 144 h, read-out: in vitro MIC

## CC(=CC(=O)OCCCC(=O)c1ccccc1)CC1OCC(CC2OC2C(C)C(C)O)C(O)C1O (stereo not shown) [Example 5, 4-Phenylbutan-4-onyl monate A]
[1]
  MIC: 0.25 µg/mL (≈ 0.51 µM)
[2]
  MIC: 0.156 µg/mL (≈ 0.318 µM)
[3]
  MIC: 0.312 µg/mL (≈ 0.636 µM)
[4]
  MIC: 1.25 µg/mL (≈ 2.55 µM)
[5]
  MIC: 5 µg/mL (≈ 10.2 µM)
[6]
  MIC: 0.07 µg/mL (≈ 0.143 µM)
[7]
  MIC: 0.05 µg/mL (≈ 0.102 µM)
[8]; im
  concentration at 10 min: 1900 ng/mL
  concentration at 20 min: 2300 ng/mL
  concentration at 40 min: 1500 ng/mL
  concentration at 1 h: 1200 ng/mL
  concentration at 2 h: 570 ng/mL
  concentration at 3 h: 380 ng/mL
  concentration at 4 h: 330 ng/mL
  concentration at 6 h: 310 ng/mL
  concentration at 8 h: 180 ng/mL
  concentration at 24 h: < 200 ng/mL
[8]; po
  concentration at 10 min: 1200 ng/mL
  concentration at 20 min: 1200 ng/mL
  concentration at 40 min: 1200 ng/mL
  concentration at 1 h: 860 ng/mL
  concentration at 2 h: 230 ng/mL
  concentration at 3 h: 160 ng/mL
  concentration at 4 h: 80 ng/mL
  concentration at 6 h: 50 ng/mL
  concentration at 8 h: 30 ng/mL
  concentration at 24 h: < 200 ng/mL
[9]
  MIC: ≤ 0.01 µg/mL
